{"source": "patent US20090175981A1", "about": "“COMPOSITIONS, METHODS AND USES FOR A NOVEL FAMILY OF PEPTIDES” (priority 2004, published 2009)", "key": {"E. coli": {"tested_on": "E. coli", "test": "In vitro antimicrobial MIC, E. coli", "assay_type": "cell-based", "experimental": "(§1) MIC determination assays. Staphylococcal aureus was grown to mid-log phase in LB at 37° C., and diluted by 500-fold with fresh LB and dispensed into 96-well micro-titer plates. Different concentrations of peptides were added, and the micro-titer plates were incubated at 37° C. with shaking. A minimal inhibition concentration (MIC) was determined as the lowest peptide concentration that produced a clear well. All experiments were performed in triplicates, and highly consistent MICs were obtained.\n(§2) For Gram (−) the following were the antimicrobial activities observed: E. coli: MIC>20 microgram/ml; Pseudomonas and Salmonella: MIC>100 microgram/ml."}, "Pseudomonas": {"tested_on": "Pseudomonas", "test": "In vitro antimicrobial MIC, Pseudomonas", "assay_type": "cell-based", "experimental": "as §1, §2"}, "Broiler Chicken [1]": {"tested_on": "Broiler Chicken", "test": "Growth promoting Studies 4-1 and 4-2 with direct coccidial challenge", "assay_type": "in vivo"}, "Salmonella": {"tested_on": "Salmonella", "test": "In vitro antimicrobial MIC, Salmonella", "assay_type": "cell-based", "experimental": "as §1, §2"}, "Staphylococcal aureus": {"tested_on": "Staphylococcal aureus", "test": "MIC determination assay / antibiotic activity of synthetic BT variants", "assay_type": "cell-based", "settings": "FIG. 6B", "experimental": "as §1"}, "broiler chickens": {"tested_on": "broiler chickens", "test": "42-day broiler floor pen trial with natural colibacillosis challenge", "assay_type": "in vivo, chicken", "experimental": "A broiler floor pen trial to compare the performance of a new anti-microbial designated for this project as BT1583 alone and in combination with the widely used coccidiostat monensin (MON) to MON fed alone, MON in combination with the also widely used antimicrobial Bacitracin MD (BMD) and BMD alone.\nThe following levels of each treatment were evaluated:\nThe study design included 10 pens per treatment and 40 birds per pen housed on day of hatch. Two basal corn-soy based diets of decreasing protein (approximately 23 to 20%) and increasing metabolizable energy (approximately 1400 to 1455 kcal/lb) were used from Day 0 to 21 (starter feed) and Days 22 to 42 (grower feed), respectively. Treatment premixes were measured and blended into diets at required levels. Between days 0 and 21 mortality was less than 1% with all birds growing optimally and of high health across all groups.\nBeginning on study day 22, the study director modulated house temperature and air flow to mimic industry conditions conducive to outbreaks of colibacillosis within naïve broiler flocks. This was done to stimulate a natural challenge for this study. Mortality climbed to a house average of approximately 10% by Day 42. A majority of these deaths occurred in groups not receiving BT1583 or MON. Lesions were consistent with those of colibacillosis (air sac, pneumonia, peri-hepatitis, peri-carditis and extreme morbidity). All mortality was documented (weight at death and post-mortem observations). All birds and feeds were weighed at 42 days. All remaining birds were euthanized on Day 42 by asphyxiation with the carcasses submitted for rendering.\nThe following variables were tested: Response Variables: Gain Per Bird, Feed Per Gain, Mortality (%), Adjusted Feed Per Gain. F test from One Way ANOVA with one blocking factor=location, at Day 42 using 0.05 level of significance.\nAll Response Variables: LSD T-test procedure for pair-wise comparisons with Type 1 error of means when ANOVA F ratio is significant, overall significance level of 0.05 used. Lines below means (see Table 30, below) indicate groups with insignificant differences in means.\nAdjusted Feed/Gain: The total weight of mortality in each pen was added to the final live weight, that value reduced by subtracting the initial weight and then dividing that value into the Total feed consumed to calculate the Adjusted Feed/Gain."}, "straight run broilers [2]": {"tested_on": "straight run broilers", "test": "Growth and feed conversion of 20-day old broilers in batteries, mash feed (Studies 2-1 and 2-2)", "assay_type": "in vivo, chicken", "experimental": "Briefly, the peptide was used in a semi-purified form to study the growth and feed conversion of […] old straight run broilers in batteries (Studies 2-1 and 2-2). Two amounts were tested against a feed control, peptide at 6 ppm and peptide at 12 ppm, 12 repetitions were carried out per treatment with 4 birds per pen. The diet used in the study was as follows."}, "straight run broilers [3]": {"tested_on": "straight run broilers", "test": "Growth and feed conversion of 3-wk old broilers in batteries, pelleted starter feed (Studies 3-1 and 3-2)", "assay_type": "in vivo, chicken", "text": "Eight (8) study repetitions per treatment were used, again with 4 birds per pen."}, "Tetrahymena": {"tested_on": "Tetrahymena", "test": "In vitro anti-protozoal MIC", "assay_type": "cell-based"}, "Gram-positive bacteria": {"tested_on": "Gram-positive bacteria", "test": "In vitro antibacterial MIC, Gram-positive bacteria", "assay_type": "cell-based", "settings": "most Gram (+)", "experimental": "as §1, §2"}, "[4]": {"assay_type": "physicochemical", "settings": "pH 1.0 plus 100° C. overnight"}, "Broiler Chicken [5]": {"tested_on": "Broiler Chicken", "test": "Growth promoting battery Studies 1-1 and 1-2", "assay_type": "in vivo"}, "S. cerevisiae": {"tested_on": "S. cerevisiae", "test": "In vitro antifungal MIC", "assay_type": "cell-based"}, "carboxypeptidase Y": {"target": "T1, carboxypeptidase Y (Saccharomyces cerevisiae, UniProt P00729)", "T1 sequence (P00729 112-532)": "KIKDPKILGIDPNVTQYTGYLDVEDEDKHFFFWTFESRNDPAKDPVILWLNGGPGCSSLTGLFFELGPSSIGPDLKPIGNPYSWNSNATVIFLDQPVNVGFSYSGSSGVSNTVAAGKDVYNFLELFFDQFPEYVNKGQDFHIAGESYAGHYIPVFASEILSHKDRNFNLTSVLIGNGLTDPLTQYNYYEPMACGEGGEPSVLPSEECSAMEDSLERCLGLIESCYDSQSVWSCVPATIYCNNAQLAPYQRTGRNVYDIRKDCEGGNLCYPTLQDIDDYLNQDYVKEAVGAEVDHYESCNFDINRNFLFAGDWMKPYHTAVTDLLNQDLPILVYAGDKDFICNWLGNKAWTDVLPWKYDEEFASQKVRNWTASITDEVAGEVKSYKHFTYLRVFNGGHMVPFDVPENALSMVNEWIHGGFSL"}, "food-producing animals": {"tested_on": "food-producing animals", "test": "Growth promotion in food-producing animals (overall statement)", "assay_type": "in vivo, chicken", "settings": "used to promote growth", "quoted_text": "Alternatively, but in no way limiting the present invention, the present invention may be used as an animal-use only antibiotic for bacterial infections."}, "[6]": {"settings": "Study 4-1, 24 ppm with direct coccidial challenge"}, "[7]": {"settings": "Study 4-2, 48 ppm with direct coccidial challenge"}, "[8]": {"settings": "MON 99 ppm, BT1583 12 ppm, BMD 55 ppm, alone or combined"}, "[9]": {"settings": "BT1583 12 ppm, BMD 50 ppm, COB 90 ppm, alone or combined, pelleted feed"}}, "note": "Values joined by “and” are separate entries in the source; they are usually repeats but may differ in a detail not shown here. Identical values can stand only once. Marks after values point to notes of the source that are not given here.", "data": [{"substance": "Me2Bmt-L-dO-I-V-V-dK-V-dL-K-dY-L-V-CH2OH [BT1583]", "values": [{"measurement": "MIC", "setting": "E. coli", "result": "> 20", "unit": "microgram/ml"}, {"measurement": "MIC", "setting": "Pseudomonas", "result": "> 100", "unit": "microgram/ml"}, {"measurement": "Additional weight gain (%)", "setting": "Broiler Chicken [1]; [6]", "result": 7.1, "unit": "%"}, {"measurement": "Feed conversion improvement (point)", "setting": "Broiler Chicken [1]; [6]", "result": 13, "unit": "point"}, {"measurement": "Additional weight gain (%)", "setting": "Broiler Chicken [1]; [7]", "result": 9.3, "unit": "%"}, {"measurement": "Feed conversion improvement (point)", "setting": "Broiler Chicken [1]; [7]", "result": 17, "unit": "point"}, {"measurement": "MIC", "setting": "Salmonella", "result": "> 100", "unit": "microgram/ml"}, {"measurement": "antibiotic activity", "setting": "Staphylococcal aureus", "result": "full antibiotic activity"}, {"measurement": "efficacy against colibacillosis", "setting": "broiler chickens; 3 to 4 week old naïve broiler chickens, simulated commercial conditions", "result": "highly effective"}, {"measurement": "feed/gain advantage over monensin and BMD fed alone and in combination", "setting": "broiler chickens; Day 42", "result": "≥ 10", "unit": "point"}, {"measurement": "weight gain advantage over monensin and BMD fed alone and in combination", "setting": "broiler chickens; Day 42", "result": "≥ 20", "unit": "point"}, {"measurement": "Day 42 Feed/Gain", "setting": "broiler chickens; [8]", "result": "1.722^ab"}, {"measurement": "Day 42 Gain/Bird", "setting": "broiler chickens; [8]", "result": "4.333^ab lb"}, {"measurement": "Day 42 Mortality (%)", "setting": "broiler chickens; acute and chronic colibacillosis, MON 99 ppm, BT1583 12 ppm, BMD 55 ppm", "result": "2.75^a %"}, {"measurement": "Day 42 Adjusted Feed/Gain", "setting": "broiler chickens; adjusted for weight of mortality, MON 99 ppm, BT1583 12 ppm, BMD 55 ppm", "result": "1.704^ab"}, {"measurement": "mortality rate compared with non-supplemented controls", "setting": "broiler chickens; alone or in combination", "result": "lower mortality rates"}, {"measurement": "20-day cumulative feed conversion rate, Mean", "setting": "straight run broilers [2]; 6 ppm in mash feed", "result": "1.5065 and 1.506"}, {"measurement": "20-day cumulative weight gain, Mean", "setting": "straight run broilers [2]; 6 ppm in mash feed", "result": 591.975}, {"measurement": "20-day cumulative feed conversion rate, Mean", "setting": "straight run broilers [2]; 12 ppm in mash feed", "result": "1.4959 and 1.496"}, {"measurement": "20-day cumulative weight gain, Mean", "setting": "straight run broilers [2]; 12 ppm in mash feed", "result": 618.934}, {"measurement": "Additional weight gain (%)", "setting": "straight run broilers [2]; Study 2-1, 6 ppm", "result": 6.7, "unit": "%"}, {"measurement": "Feed conversion improvement (point)", "setting": "straight run broilers [2]; Study 2-1, 6 ppm", "result": 9, "unit": "point"}, {"measurement": "Additional weight gain (%)", "setting": "straight run broilers [2]; Study 2-2, 12 ppm", "result": 11, "unit": "%"}, {"measurement": "Feed conversion improvement (point)", "setting": "straight run broilers [2]; Study 2-2, 12 ppm", "result": 10, "unit": "point"}, {"measurement": "20-day cumulative feed conversion rate, Mean", "setting": "straight run broilers [3]; [9]", "result": 1.3308}, {"measurement": "21-day cumulative feed conversion rate, Estimated Marginal Mean", "setting": "straight run broilers [3]; [9]", "result": 1.331}, {"measurement": "21-day cumulative weight gain, Mean", "setting": "straight run broilers [3]; [9]", "result": "831.7396 and 831.740"}, {"measurement": "Additional weight gain (%)", "setting": "straight run broilers [3]; Study 3-1, 12 ppm", "result": 16, "unit": "%"}, {"measurement": "Feed conversion improvement (point)", "setting": "straight run broilers [3]; Study 3-1, 12 ppm", "result": 9, "unit": "point"}, {"measurement": "Additional weight gain (%)", "setting": "straight run broilers [3]; Study 3-2, 12 ppm with Coban", "result": 5.4, "unit": "%"}, {"measurement": "Feed conversion improvement (point)", "setting": "straight run broilers [3]; Study 3-2, 12 ppm with Coban (vs Coban alone)", "result": 9, "unit": "point"}, {"measurement": "MIC", "setting": "Tetrahymena", "result": 25, "unit": "microgram/ml"}, {"measurement": "MIC", "setting": "Gram-positive bacteria", "result": 1, "unit": "microgram/ml"}, {"measurement": "in vitro inactivation", "setting": "[4]", "result": "only known in vitro method to inactivate it is pH 1.0 plus 100 °C overnight"}, {"measurement": "Additional weight gain (%)", "setting": "Broiler Chicken [5]; Study 1-1, 10 ppm", "result": 17, "unit": "%"}, {"measurement": "Feed conversion improvement (point)", "setting": "Broiler Chicken [5]; Study 1-1, 10 ppm", "result": 7, "unit": "point"}, {"measurement": "Additional weight gain (%)", "setting": "Broiler Chicken [5]; Study 1-2, 30 ppm", "result": 17, "unit": "%"}, {"measurement": "Feed conversion improvement (point)", "setting": "Broiler Chicken [5]; Study 1-2, 30 ppm", "result": 8, "unit": "point"}, {"measurement": "MIC", "setting": "S. cerevisiae", "result": 50, "unit": "microgram/ml"}, {"measurement": "cleavage by carboxypeptidase Y", "setting": "carboxypeptidase Y", "result": "resistant"}, {"measurement": "feed conversion gain", "setting": "food-producing animals", "result": "about 10 points"}]}]}
